# Test results reported in patent US20100298141A1, “SUBSTITUTED PYRIDINE N-OXIDE HERBICIDES” (E. I. DU PONT DE NEMOURS AND COMPANY, priority 2007, published 2010).
# Key:
# [1] = test system: pigweed; assay: Test C pre-/postemergence test; assay type: in vivo, Amaranthus retroflexus; details: for Plant response rating (0 to 100), Pigweed: 250 g ai/ha
# How it was run: (§1)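 Seeds were planted and treated preemergence with test chemical in a non-phytotoxic solvent mixture containing surfactant. Postemergence applications of the same formulation went onto plants 2 to 18 cm tall (1- to 4-leaf stage). A dash marks no test result.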
# [2] = test system: blackgrass; assay: Test C pre-/postemergence test; assay type: in vivo, Alopecurus myosuroides
# How it was run: as §1
# [3] = test system: velvetleaf; assay: Test C pre-/postemergence test; assay type: in vivo, Abutilon theophrasti; details: for Velvetleaf plant response rating: preemergence, scale 0 (no effect) to 100 (complete control); for Plant response rating (0 to 100), Velvetleaf: Preemergence, 250 g ai/ha
# How it was run: as §1
# [4] = test system: woolly cupgrass; assay: Test C pre-/postemergence test; assay type: in vivo, Eriochloa villosa; details: for Plant response rating (0 to 100), Cupgrass, Woolly: 250 g ai/ha
# How it was run: as §1
# [5] = test system: common ragweed; assay: Test C pre-/postemergence test; assay type: in vivo, Ambrosia elation
# How it was run: as §1
# [6] = test system: catchweed bedstraw; assay: Test C pre-/postemergence test; assay type: in vivo, Galium aparine; details: for Plant response rating (0 to 100), Galium: 250 g ai/ha
# How it was run: as §1
# [7] = test system: lambsquarters; assay: Test C pre-/postemergence test; assay type: in vivo, Chenopodium album; details: for Plant response rating (0 to 100), Lambsquarters: 250 g ai/ha
# How it was run: as §1
# [8] = test system: soybean; assay: Test C pre-/postemergence test; assay type: in vivo, Glycine max; details: for Plant response rating (0 to 100), Soybean: 250 g ai/ha
# How it was run: as §1
# [9] = test system: barnyardgrass; assay: Test A pre-/postemergence greenhouse test; assay type: in vivo, Echinochloa crus-galli; details: for Barnyardgrass plant response rating: 0 to 100 scale; for Plant response rating, Barnyardgrass: 0 to 100 scale where 0 is no effect and 100 is complete control
# How it was run: (§2)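 Herbicidal effect is a visual injury score given about ten days post-treatment by comparison with untreated controls. Preemergence plots received a directed spray onto sown loam–sand soil; postemergence plants, at the one- to two-leaf stage and 2–10 cm tall, were sprayed at the same time.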
# [10] = test system: duck salad; assay: Test C flooded paddy test; assay type: in vivo, Heteranthera limosa; details: Flood
# How it was run: (§3)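 In-water treatment: compound dosed into 3 cm flood over soil, water level unchanged throughout. Controls run alongside; visual assessment at day 13–15.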
# [11] = test system: green foxtail; assay: Test C pre-/postemergence test; assay type: in vivo, Setaria viridis; details: for Plant response rating (0 to 100), Foxtail, Green: 250 g ai/ha
# How it was run: as §1
# [12] = test system: velvetleaf; assay: Test A pre-/postemergence greenhouse test; assay type: in vivo, Abutilon theophrasti; details: for Velvetleaf plant response rating: 0 to 100 scale; for Plant response rating, Velvetleaf: 0 to 100 scale where 0 is no effect and 100 is complete control
# How it was run: as §2
# [13] = test system: Surinam grass; assay: Test C pre-/postemergence test; assay type: in vivo, Brachiaria decumbens; details: for Surinam Grass plant response rating: preemergence, scale 0 (no effect) to 100 (complete control); for Plant response rating (0 to 100), Surinam Grass: Preemergence, 250 g ai/ha
# How it was run: as §1
# [14] = test system: downy brome; assay: Test C pre-/postemergence test; assay type: in vivo, Bromus tectorum; details: for Plant response rating (0 to 100), Bromegrass, Downy: 250 g ai/ha
# How it was run: as §1
# [15] = test system: barnyardgrass; assay: Test C flooded paddy test; assay type: in vivo, Echinochloa crus-galli; details: Flood
# How it was run: as §3
# [16] = test system: giant foxtail; assay: Test A pre-/postemergence greenhouse test; assay type: in vivo, Setaria faberi; details: for Foxtail, Giant plant response rating: 0 to 100 scale; for Plant response rating, Foxtail, Giant: 0 to 100 scale where 0 is no effect and 100 is complete control
# How it was run: as §2
# [17] = test system: crabgrass; assay: Test A pre-/postemergence greenhouse test; assay type: in vivo, Digitaria sanguinalis; details: for Crabgrass, Large plant response rating: 0 to 100 scale; for Plant response rating, Crabgrass, Large: 0 to 100 scale where 0 is no effect and 100 is complete control
# How it was run: as §2
# [18] = 31 g ai/ha, Preemergence, scale 0 to 100
# [19] = 62 g ai/ha, preemergence, scale 0 (no effect) to 100 (complete control)
# [20] = preemergence, 125 g ai/ha, scale 0 (no effect) to 100 (complete control)
# [21] = Postemergence, 125 g ai/ha, 0 is no effect, 100 is complete control
# [22] = Postemergence, 500 g ai/ha, 0 is no effect, 100 is complete control
# [23] = Preemergence, 125 g ai/ha, 0 no effect, 100 complete control
# [24] = 31 g ai/ha, scale 0 to 100 (0 no effect, 100 complete control)
# [25] = 62 g ai/ha, scale 0 to 100, 0 no effect, 100 complete control, 13 to 15 days
# [26] = 125 g ai/ha, scale 0 to 100, 0 no effect, 100 complete control, 13 to 15 days
# [27] = 250 g ai/ha, scale 0 to 100 (0 no effect, 100 complete control)
compound,measurement,setting,value
Cc1cc[n+]([O-])c(S(=O)(=O)C(C)c2c(C(F)(F)F)nn(C)c2Cl)c1 (racemic) [Compound 14],Pigweed plant response rating,[1]; [18],100
same,Pigweed plant response rating,[1]; [19],100
same,"Plant response rating (0 to 100), Pigweed",[1]; Preemergence,100
same,Pigweed plant response rating,[1]; [20],100
same,Blackgrass plant response rating,[2]; [18],40
same,Blackgrass plant response rating,[2]; [19],80
same,"Plant response rating (0 to 100), Blackgrass","[2]; Preemergence, 250 g ai/ha",80
same,Velvetleaf plant response rating,[3]; 62 g ai/ha,10
same,"Plant response rating (0 to 100), Velvetleaf",[3],100
same,Velvetleaf plant response rating,[3]; 125 g ai/ha,100
same,"Cupgrass, Woolly plant response rating",[4]; [18],85
same,"Cupgrass, Woolly plant response rating",[4]; [19],85
same,"Plant response rating (0 to 100), Cupgrass, Woolly",[4]; Preemergence,100
same,"Cupgrass, Woolly plant response rating",[4]; [20],90
same,Ragweed plant response rating,[5]; [18],0
same,Ragweed plant response rating,[5]; [19],85
same,"Plant response rating (0 to 100), Ragweed","[5]; Preemergence, 250 g ai/ha",100
same,Ragweed plant response rating,[5]; [20],85
same,Galium plant response rating,[6]; [18],0
same,Galium plant response rating,[6]; [19],100
same,"Plant response rating (0 to 100), Galium",[6]; Preemergence,100
same,Galium plant response rating,[6]; [20],100
same,Lambsquarters plant response rating,[7]; [18],30
same,Lambsquarters plant response rating,[7]; [19],100
same,"Plant response rating (0 to 100), Lambsquarters",[7]; Preemergence,100
same,Lambsquarters plant response rating,[7]; [20],100
same,Soybean plant response rating,[8]; [18],0
same,Soybean plant response rating,[8]; [19],0
same,"Plant response rating (0 to 100), Soybean",[8]; Preemergence,85
same,Soybean plant response rating,[8]; [20],5
same,Barnyardgrass plant response rating,[9]; [21],30
same,Barnyardgrass plant response rating,[9]; [22],60
same,Barnyardgrass plant response rating,[9]; [23],80
same,"Plant response rating, Barnyardgrass","[9]; Preemergence, 500 g ai/ha",100
same,"Plant response rating, Ducksalad",[10]; [24],40
same,"Plant response rating, Ducksalad",[10]; [25],50
same,"Plant response rating, Ducksalad",[10]; [26],80
same,"Plant response rating, Ducksalad",[10]; [27],100
same,"Foxtail, Green plant response rating",[11]; [18],90
same,"Foxtail, Green plant response rating",[11]; [19],100
same,"Plant response rating (0 to 100), Foxtail, Green",[11]; Preemergence,100
same,"Foxtail, Green plant response rating",[11]; [20],100
same,Velvetleaf plant response rating,[12]; [21],0
same,Velvetleaf plant response rating,[12]; [22],60
same,Velvetleaf plant response rating,[12]; [23],0
same,"Plant response rating, Velvetleaf","[12]; Preemergence, 500 g ai/ha",60
same,Surinam Grass plant response rating,[13]; 62 g ai/ha,85
same,"Plant response rating (0 to 100), Surinam Grass",[13],100
same,Surinam Grass plant response rating,[13]; 125 g ai/ha,95
same,"Bromegrass, Downy plant response rating",[14]; [18],30
same,"Bromegrass, Downy plant response rating",[14]; [19],35
same,"Plant response rating (0 to 100), Bromegrass, Downy",[14]; Preemergence,70
same,"Bromegrass, Downy plant response rating",[14]; [20],70
same,"Plant response rating, Barnyardgrass",[15]; [24],0
same,"Plant response rating, Barnyardgrass",[15]; [25],0
same,"Plant response rating, Barnyardgrass",[15]; [26],60
same,"Plant response rating, Barnyardgrass",[15]; [27],100
same,"Foxtail, Giant plant response rating",[16]; [21],70
same,"Foxtail, Giant plant response rating",[16]; [22],80
same,"Foxtail, Giant plant response rating",[16]; [23],90
same,"Plant response rating, Foxtail, Giant","[16]; Preemergence, 500 g ai/ha",100
same,"Crabgrass, Large plant response rating",[17]; [21],40
same,"Crabgrass, Large plant response rating",[17]; [22],70
same,"Crabgrass, Large plant response rating",[17]; [23],90
same,"Plant response rating, Crabgrass, Large","[17]; Preemergence, 500 g ai/ha",100
Cn1nc(C(F)(F)F)c(C[S+]([O-])c2ccc(Br)c[n+]2[O-])c1OC(F)F (racemic) [Compound 16],Pigweed plant response rating,[1]; [18],100
same,Pigweed plant response rating,[1]; [19],100
same,"Plant response rating (0 to 100), Pigweed",[1]; Preemergence,100
same,Pigweed plant response rating,[1]; [20],100
same,Blackgrass plant response rating,[2]; [18],0
same,Blackgrass plant response rating,[2]; [19],50
same,Blackgrass plant response rating,[2]; [20],50
same,Velvetleaf plant response rating,[3]; 62 g ai/ha,100
same,"Plant response rating (0 to 100), Velvetleaf",[3],100
same,Velvetleaf plant response rating,[3]; 125 g ai/ha,100
same,"Cupgrass, Woolly plant response rating",[4]; [18],20
same,"Cupgrass, Woolly plant response rating",[4]; [19],80
same,"Plant response rating (0 to 100), Cupgrass, Woolly",[4]; Preemergence,100
same,"Cupgrass, Woolly plant response rating",[4]; [20],95
same,Ragweed plant response rating,[5]; [18],10
same,Ragweed plant response rating,[5]; [19],45
same,Ragweed plant response rating,[5]; [20],100
same,Galium plant response rating,[6]; [18],0
same,Galium plant response rating,[6]; [19],100
same,"Plant response rating (0 to 100), Galium",[6]; Preemergence,100
same,Galium plant response rating,[6]; [20],100
same,Lambsquarters plant response rating,[7]; [18],80
same,Lambsquarters plant response rating,[7]; [19],90
same,"Plant response rating (0 to 100), Lambsquarters",[7]; Preemergence,100
same,Lambsquarters plant response rating,[7]; [20],100
same,Soybean plant response rating,[8]; [18],0
same,Soybean plant response rating,[8]; [19],30
same,"Plant response rating (0 to 100), Soybean",[8]; Preemergence,80
same,Soybean plant response rating,[8]; [20],60
same,Barnyardgrass plant response rating,[9]; [21],90
same,Barnyardgrass plant response rating,[9]; [22],100
same,Barnyardgrass plant response rating,[9]; [23],90
same,"Plant response rating, Barnyardgrass","[9]; Preemergence, 500 g ai/ha",100
same,"Plant response rating, Ducksalad",[10]; [24],0
same,"Plant response rating, Ducksalad",[10]; [25],0
same,"Plant response rating, Ducksalad",[10]; [26],0
same,"Plant response rating, Ducksalad",[10]; [27],0
same,"Foxtail, Green plant response rating",[11]; [18],70
same,"Foxtail, Green plant response rating",[11]; [19],70
same,"Plant response rating (0 to 100), Foxtail, Green",[11]; Preemergence,100
same,"Foxtail, Green plant response rating",[11]; [20],70
same,Velvetleaf plant response rating,[12]; [21],50
same,Velvetleaf plant response rating,[12]; [22],90
same,Velvetleaf plant response rating,[12]; [23],80
same,"Plant response rating, Velvetleaf","[12]; Preemergence, 500 g ai/ha",100
same,Surinam Grass plant response rating,[13]; 62 g ai/ha,55
same,"Plant response rating (0 to 100), Surinam Grass",[13],100
same,Surinam Grass plant response rating,[13]; 125 g ai/ha,100
same,"Bromegrass, Downy plant response rating",[14]; [18],20
same,"Bromegrass, Downy plant response rating",[14]; [19],50
same,"Plant response rating (0 to 100), Bromegrass, Downy",[14]; Preemergence,60
same,"Bromegrass, Downy plant response rating",[14]; [20],55
same,"Plant response rating, Barnyardgrass",[15]; [24],0
same,"Plant response rating, Barnyardgrass",[15]; [25],0
same,"Plant response rating, Barnyardgrass",[15]; [26],0
same,"Plant response rating, Barnyardgrass",[15]; [27],0
same,"Foxtail, Giant plant response rating",[16]; [21],80
same,"Foxtail, Giant plant response rating",[16]; [22],90
same,"Foxtail, Giant plant response rating",[16]; [23],100
same,"Plant response rating, Foxtail, Giant","[16]; Preemergence, 500 g ai/ha",100
same,"Crabgrass, Large plant response rating",[17]; [21],70
same,"Crabgrass, Large plant response rating",[17]; [22],90
same,"Crabgrass, Large plant response rating",[17]; [23],80
same,"Plant response rating, Crabgrass, Large","[17]; Preemergence, 500 g ai/ha",100
